From US4211772A, “Benzopyran glycoside acetals and ketals” (Laboratoires Sarget, priority 1977, dated 1980)
≈ marks a conversion by molar mass, not a printed value. Where two headings read alike, the source gives them in different places.

Columns and labels:
Solubilities in water = assay type: physicochemical; conditions: water; read-out: Solubilities in water
Aldose Reductase = target: T1, Aldose Reductase (Bos taurus, UniProt P16116); assay: Inhibition of aldose reductase in vitro (enzyme from beef eye lenses, glyceraldehyde substrate); assay type: biochemical; conditions: in DMF solution, read-out: percentages of inhibition (aldose reductase)
T1 construct: The enzyme is extracted from beef eye lenses; from tissue; host or cells: beef eye lenses
Excerpt: Inhibition of Aldose Reductase In Vitro
The reoxidation of NADPH coupled to the enzymatic reaction was followed spectrophotometrically at 340 nm.

carragenin edema = assay: Anti-inflammatory activity: carragenin edema test; assay type: in vivo; conditions: for % inhibition of carragenin edema: borate buffer pH 7, 24 h; for inhibition in vivo at 100 mg/kg / inhibition in vivo at 200 mg/kg / inhibition in vivo at 300 mg/kg / inhibition in vivo at 75 mg/kg / inhibition in vivo at 150 mg/kg: Rattus norvegicus, ip
Method in brief: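 Male Wistar EOPS rats receive 0.1 ml of 5% carragenin suspension in physiological serum into the hind-paw metatarsal muscle, with test substance given i.p. in neutralized solution at the same time. Paw edema is measured by plethysmometry at several times after carragenin and reported as % inhibition against pH-matched physiological serum controls.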

Wistar EOPS rat = assay: Minimum lethal dose by slow i.v. perfusion in the rat; assay type: in vivo
Procedure: The minimum lethal dose of compound No. 1 administered by slow i.v. perfusion in the Wistar EOPS rat is in the neighborhood of 15 mg/kg/min. for 30 min.

galactosemic cataract = assay: Galactosemic cataract in rats; assay type: in vivo, weaning male EOPS Wistar rats; conditions: 100 mg/kg/d i.p.
Procedure: GALACTOSEMIC CATARACT IN RATS
The study was conducted using weaning male EOPS Wistar rats having an initial weight of between 45 and 50 g. The animals were fed a high vitamin and high protein regimen containing 20% by weight of galactose. The first signs of cataracts, detected by the ophthalmoscope, appeared beginning with the third day. The animals received daily i.p. doses of the test compound, the treatment being started four days after the commencement of the galactosemic regimen. The evolution of the cataract was followed by the detection of maroon rings visible in the ophthalmoscope. These rings appeared on the external edge of the lens and progressed little by little to its center. Anatomopathological studies of the lenses confirmed that these brown rings correspond well to the characteristic histological lesions of galactosemic cataracts. Photographs taken with the aid of a retinograph facilitated the comparison of the evolution of the lesions.
Statistical calculations according to the .chi.^2 method permit an evaluation of the significance of the results obtained for each of the treatments compared to those for non-treated animals.

capillary resistance = assay: Capillaroprotecting effects: capillary resistance; assay type: in vivo, male OFA EOPS rats
Procedure: (§1) Capillaroprotecting effects
The capillary resistance was determined by a variant of the method of Charlier et al, Arch. Inter. Physiol.

capillary permeability = assay: Capillaroprotecting effects: capillary permeability; assay type: in vivo, conventional male Wistar rats
Procedure: as §1
The capillary permeability was determined by the method of Charlier et al, Arch. Inter. Physiol.

C[C@@H]1O[C@@H](OC[C@H]2O[C@@H](Oc3c(-c4ccc(O)c(O)c4)oc4cc(O)cc(O)c4c3=O)[C@H](O)[C@@H](O)[C@@H]2O)[C@@H]2OC(C)(C)O[C@@H]2[C@H]1O [No. 1, 3-O-(2,3-O,O-isopropylidene-6-α-L-rhamnosyl-β-D-glucosyl)-quercetin]
solubility (Solubilities in water): 7000 µg/mL (≈ 10.8 mM) | inhibition at 100 µM (Aldose Reductase; 10^-4 mole/l): 82% | inhibition at 10 µM (Aldose Reductase; 10^-5 mole/l): 32% | % inhibition of carragenin edema (carragenin edema; 75 mg/kg i.p.): 5% | % inhibition of carragenin edema (carragenin edema; 150 mg/kg i.p.): 21% | % inhibition of carragenin edema (carragenin edema; 200 mg/kg i.p.): 0% | inhibition in vivo at 100 mg/kg (carragenin edema; 100 mg/kg i.p., physiological serum, 1/2 h, read-out: % inhibition of carragenin edema): 33% | inhibition in vivo at 200 mg/kg (carragenin edema; 200 mg/kg i.p., physiological serum, 1/2 h, read-out: % inhibition of carragenin edema): 0% | inhibition in vivo at 300 mg/kg (carragenin edema; 300 mg/kg i.p., physiological serum, 1/2 h, read-out: % inhibition of carragenin edema): 30% | inhibition in vivo at 75 mg/kg (carragenin edema; 1 h, pH 7, read-out: % inhibition of carragenin edema, 75 mg/kg i.p., borate buffer pH 7, 1 h): 18% | inhibition in vivo at 75 mg/kg (carragenin edema; 1 h, pH 7, read-out: % inhibition of carragenin edema, 75 mg/kg i.p., borate buffer pH 7, 1 h 1/2): 29% | inhibition in vivo at 150 mg/kg (carragenin edema; 1 h, pH 7, read-out: % inhibition of carragenin edema, 150 mg/kg i.p., borate buffer pH 7, 1 h): 25% | inhibition in vivo at 150 mg/kg (carragenin edema; 1 h, pH 7, read-out: % inhibition of carragenin edema, 150 mg/kg i.p., borate buffer pH 7, 1 h 1/2): 40% | inhibition in vivo at 200 mg/kg (carragenin edema; 1 h, pH 7, read-out: % inhibition of carragenin edema, 200 mg/kg i.p., borate buffer pH 7, 1 h): 16% | inhibition in vivo at 200 mg/kg (carragenin edema; 1 h, pH 7, read-out: % inhibition of carragenin edema, 200 mg/kg i.p., borate buffer pH 7, 1 h 1/2): 37% | inhibition in vivo at 100 mg/kg (carragenin edema; 1 h, read-out: % inhibition of carragenin edema, 100 mg/kg i.p., physiological serum, 1 h): 24% | inhibition in vivo at 200 mg/kg (carragenin edema; 1 h, read-out: % inhibition of carragenin edema, 200 mg/kg i.p., physiological serum, 1 h): 0% | inhibition in vivo at 300 mg/kg (carragenin edema; 1 h, read-out: % inhibition of carragenin edema, 300 mg/kg i.p., physiological serum, 1 h): 37% | inhibition in vivo at 75 mg/kg (carragenin edema; 2 h, pH 7, read-out: % inhibition of carragenin edema, 75 mg/kg i.p., borate buffer pH 7, 2 h): 23% | inhibition in vivo at 150 mg/kg (carragenin edema; 2 h, pH 7, read-out: % inhibition of carragenin edema, 150 mg/kg i.p., borate buffer pH 7, 2 h): 34% | inhibition in vivo at 200 mg/kg (carragenin edema; 2 h, pH 7, read-out: % inhibition of carragenin edema, 200 mg/kg i.p., borate buffer pH 7, 2 h): 38% | inhibition in vivo at 100 mg/kg (carragenin edema; 2 h, read-out: % inhibition of carragenin edema, 100 mg/kg i.p., physiological serum, 2 h): 5% | inhibition in vivo at 200 mg/kg (carragenin edema; 2 h, read-out: % inhibition of carragenin edema, 200 mg/kg i.p., physiological serum, 2 h): 8% | inhibition in vivo at 300 mg/kg (carragenin edema; 2 h, read-out: % inhibition of carragenin edema, 300 mg/kg i.p., physiological serum, 2 h): 8% | inhibition in vivo at 75 mg/kg (carragenin edema; 3 h, pH 7, read-out: % inhibition of carragenin edema, 75 mg/kg i.p., borate buffer pH 7, 3 h): 20% | inhibition in vivo at 150 mg/kg (carragenin edema; 3 h, pH 7, read-out: % inhibition of carragenin edema, 150 mg/kg i.p., borate buffer pH 7, 3 h): 26% | inhibition in vivo at 200 mg/kg (carragenin edema; 3 h, pH 7, read-out: % inhibition of carragenin edema, 200 mg/kg i.p., borate buffer pH 7, 3 h): 30% | inhibition in vivo at 100 mg/kg (carragenin edema; 3 h, read-out: % inhibition of carragenin edema, 100 mg/kg i.p., physiological serum, 3 h): 7% | inhibition in vivo at 200 mg/kg (carragenin edema; 3 h, read-out: % inhibition of carragenin edema, 200 mg/kg i.p., physiological serum, 3 h): 8% | inhibition in vivo at 300 mg/kg (carragenin edema; 3 h, read-out: % inhibition of carragenin edema, 300 mg/kg i.p., physiological serum, 3 h): 16% | inhibition in vivo at 75 mg/kg (carragenin edema; 4 h, pH 7, read-out: % inhibition of carragenin edema, 75 mg/kg i.p., borate buffer pH 7, 4 h): 14% | inhibition in vivo at 150 mg/kg (carragenin edema; 4 h, pH 7, read-out: % inhibition of carragenin edema, 150 mg/kg i.p., borate buffer pH 7, 4 h): 19% | inhibition in vivo at 200 mg/kg (carragenin edema; 4 h, pH 7, read-out: % inhibition of carragenin edema, 200 mg/kg i.p., borate buffer pH 7, 4 h): 21% | inhibition in vivo at 100 mg/kg (carragenin edema; 4 h, read-out: % inhibition of carragenin edema, 100 mg/kg i.p., physiological serum, 4 h): 16% | inhibition in vivo at 200 mg/kg (carragenin edema; 4 h, read-out: % inhibition of carragenin edema, 200 mg/kg i.p., physiological serum, 4 h): 12% | inhibition in vivo at 300 mg/kg (carragenin edema; 4 h, read-out: % inhibition of carragenin edema, 300 mg/kg i.p., physiological serum, 4 h): 27% | inhibition in vivo at 75 mg/kg (carragenin edema; 5 h, pH 7, read-out: % inhibition of carragenin edema, 75 mg/kg i.p., borate buffer pH 7, 5 h): 25% | inhibition in vivo at 150 mg/kg (carragenin edema; 5 h, pH 7, read-out: % inhibition of carragenin edema, 150 mg/kg i.p., borate buffer pH 7, 5 h): 27% | inhibition in vivo at 200 mg/kg (carragenin edema; 5 h, pH 7, read-out: % inhibition of carragenin edema, 200 mg/kg i.p., borate buffer pH 7, 5 h): 30% | inhibition in vivo at 100 mg/kg (carragenin edema; 5 h, read-out: % inhibition of carragenin edema, 100 mg/kg i.p., physiological serum, 5 h): 20% | inhibition in vivo at 200 mg/kg (carragenin edema; 5 h, read-out: % inhibition of carragenin edema, 200 mg/kg i.p., physiological serum, 5 h): 15% | inhibition in vivo at 300 mg/kg (carragenin edema; 5 h, read-out: % inhibition of carragenin edema, 300 mg/kg i.p., physiological serum, 5 h): 30% | inhibition in vivo at 75 mg/kg (carragenin edema; 6 h, pH 7, read-out: % inhibition of carragenin edema, 75 mg/kg i.p., borate buffer pH 7, 6 h): 17% | inhibition in vivo at 150 mg/kg (carragenin edema; 6 h, pH 7, read-out: % inhibition of carragenin edema, 150 mg/kg i.p., borate buffer pH 7, 6 h): 28% | inhibition in vivo at 200 mg/kg (carragenin edema; 6 h, pH 7, read-out: % inhibition of carragenin edema, 200 mg/kg i.p., borate buffer pH 7, 6 h): 18% | inhibition in vivo at 100 mg/kg (carragenin edema; 6 h, read-out: % inhibition of carragenin edema, 100 mg/kg i.p., physiological serum, 6 h): 7% | inhibition in vivo at 200 mg/kg (carragenin edema; 6 h, read-out: % inhibition of carragenin edema, 200 mg/kg i.p., physiological serum, 6 h): 9% | inhibition in vivo at 300 mg/kg (carragenin edema; 6 h, read-out: % inhibition of carragenin edema, 300 mg/kg i.p., physiological serum, 6 h): 27% | inhibition in vivo at 75 mg/kg (carragenin edema; read-out: % inhibition of carragenin edema, 75 mg/kg i.p., borate buffer pH 7, 1/2 h): 18% | inhibition in vivo at 150 mg/kg (carragenin edema; read-out: % inhibition of carragenin edema, 150 mg/kg i.p., borate buffer pH 7, 1/2 h): 15% | inhibition in vivo at 200 mg/kg (carragenin edema; read-out: % inhibition of carragenin edema, 200 mg/kg i.p., borate buffer pH 7, 1/2 h): 9% | arterial pressure and cardiac frequency, time of maximum (Wistar EOPS rat): attain their maximum values at the twelfth minute of the perfusion | cause of death (Wistar EOPS rat): death occurs by respiratory arrest | hemodynamic effects (Wistar EOPS rat): brief, low intensity hypotension is observed accompanied by bradycardia | minimum lethal dose (Wistar EOPS rat; for 30 min): ~15 mg/kg/min | percentage of animals which have not yet shown the appearance of cataracts (galactosemic cataract; day 0): 100% | percentage of animals which have not yet shown the appearance of cataracts (galactosemic cataract; day 1): 100% | percentage of animals which have not yet shown the appearance of cataracts (galactosemic cataract; day 2): 87.5% | percentage of animals which have not yet shown the appearance of cataracts (galactosemic cataract; day 3): 81% | percentage of animals which have not yet shown the appearance of cataracts (galactosemic cataract; day 4): 50% | significance compared to non-treated animals (chi^2) (galactosemic cataract; day 4): S | percentage of animals which have not yet shown the appearance of cataracts (galactosemic cataract; day 5): 37.5% | significance compared to non-treated animals (chi^2) (galactosemic cataract; day 5): S | percentage of animals which have not yet shown the appearance of cataracts (galactosemic cataract; day 6): 37.5% | significance compared to non-treated animals (chi^2) (galactosemic cataract; day 6): S | percentage of animals which have not yet shown the appearance of cataracts (galactosemic cataract; day 10): 37.5% | significance compared to non-treated animals (chi^2) (galactosemic cataract; day 10): S | percentage of animals which have not yet shown the appearance of cataracts (galactosemic cataract; day 12): 28% | significance compared to non-treated animals (chi^2) (galactosemic cataract; day 12): S | percentage of animals which have not yet shown the appearance of cataracts (galactosemic cataract; day 16): 19% | significance compared to non-treated animals (chi^2) (galactosemic cataract; day 16): S | percentage of animals which have not yet shown the appearance of cataracts (galactosemic cataract; day -4): 100% | % of animals for which the effect is ≥ 25 u cm Hg/h (capillary resistance; 100 mg/kg i.p.): 50% | capillary resistance, effect observed (capillary resistance; 100 mg/kg i.p.): 21.5 ± 4.6 u cm Hg/h | % of animals for which the effect is ≥ 25 u cm Hg/h (capillary resistance; 200 mg/kg i.p.): 90% | capillary resistance, effect observed (capillary resistance; 200 mg/kg i.p.): 41.25 ± 15.3 u cm Hg/h | percentage reduction of capillary permeability (capillary permeability; 400 mg/kg i.p.): 30% | percentage reduction of capillary permeability (capillary permeability; 800 mg/kg i.p.): 37%
